# Details: n = 8
# Method: All patients received 140 mg bimiralisib (PQR309) orally once daily on 2 consecutive days followed by 5 days without treatment weekly until unacceptable toxicity, tumor progression, patient request for withdrawal, investigator judgment, or death.
# Radiologic tumor assessments were performed using computed tomography at baseline and every 6 weeks. Safety was continuously monitored.
structure (smiles),measurement,value
"Nc1cc(C(F)(F)F)c(-c2nc(N3CCOCC3)nc(N3CCOCC3)n2)cn1 [Bimiralisib, 5-(4,6-dimorpholino-1,3,5-triazin-2-yl)-4-(trifluoromethyl)pyridin-2-amine]","General disorders and administration site conditions, Grade 1, total number of events",6
same,"General disorders and administration site conditions, Grade 2, patients",1 (12.5) n (%)
same,"General disorders and administration site conditions, Grade 2, total number of events",1
same,"General disorders and administration site conditions, Grade 3/4, patients",1 (12.5) n (%)
same,"General disorders and administration site conditions, Grade 3/4, total number of events",1
same,"Hemorrhage, Grade 1, patients",0 n (%)
same,"Hemorrhage, Grade 1, total number of events",0
same,"Hemorrhage, Grade 2, patients",0 n (%)
same,"Hemorrhage, Grade 2, total number of events",0
same,"Hemorrhage, Grade 3/4, patients",1 (12.5) n (%)
same,"Hemorrhage, Grade 3/4, total number of events",1
same,"Hyperglycemia, Grade 1, patients",1 (12.5) n (%)
same,"Hyperglycemia, Grade 1, total number of events",1
same,"Hyperglycemia, Grade 2, patients",0 n (%)
same,"Hyperglycemia, Grade 2, total number of events",0
same,"Hyperglycemia, Grade 3/4, patients",2 (25.0) n (%)
same,"Hyperglycemia, Grade 3/4, total number of events",2
same,"Hypocalcemia, Grade 1, patients",0 n (%)
same,"Hypocalcemia, Grade 1, total number of events",0
same,"Hypocalcemia, Grade 2, patients",1 (12.5) n (%)
same,"Hypocalcemia, Grade 2, total number of events",1
same,"Hypocalcemia, Grade 3/4, patients",0 n (%)
same,"Hypocalcemia, Grade 3/4, total number of events",0
same,"Hypotension, Grade 1, patients",1 (12.5) n (%)
same,"Hypotension, Grade 1, total number of events",1
same,"Hypotension, Grade 2, patients",0 n (%)
same,"Hypotension, Grade 2, total number of events",0
same,"Hypotension, Grade 3/4, patients",0 n (%)
same,"Hypotension, Grade 3/4, total number of events",0
same,"Infections and infestations, Grade 3/4, patients",3 (37.5) n (%)
same,"Injury, poisoning and procedural complications, Grade 1, patients",1 (12.5) n (%)
same,"Injury, poisoning and procedural complications, Grade 1, total number of events",1
same,"Injury, poisoning and procedural complications, Grade 2, patients",0 n (%)
same,"Injury, poisoning and procedural complications, Grade 2, total number of events",0
same,"Injury, poisoning and procedural complications, Grade 3/4, patients",0 n (%)
same,"Injury, poisoning and procedural complications, Grade 3/4, total number of events",0
same,"Investigations, Grade 1, patients",3 (37.5) n (%)
same,"Investigations, Grade 1, total number of events",3
same,"Investigations, Grade 2, patients",0 n (%)
same,"Investigations, Grade 2, total number of events",0
same,"Investigations, Grade 3/4, patients",1 (12.5) n (%)
same,"Investigations, Grade 3/4, total number of events",2
same,"Laryngeal stenosis, Grade 1, patients",0 n (%)
same,"Laryngeal stenosis, Grade 1, total number of events",0
same,"Laryngeal stenosis, Grade 2, patients",0 n (%)
same,"Laryngeal stenosis, Grade 2, total number of events",0
same,"Laryngeal stenosis, Grade 3/4, patients",1 (12.5) n (%)
same,"Laryngeal stenosis, Grade 3/4, total number of events",1
same,"Metabolism and nutrition disorders, Grade 1, patients",1 (12.5) n (%)
same,"Metabolism and nutrition disorders, Grade 1, total number of events",1
same,"Metabolism and nutrition disorders, Grade 2, patients",2 (25.0) n (%)
same,"Metabolism and nutrition disorders, Grade 2, total number of events",3
same,"Metabolism and nutrition disorders, Grade 3/4, patients",2 (25.0) n (%)
same,"Metabolism and nutrition disorders, Grade 3/4, total number of events",2
same,"Musculoskeletal and connective tissue disorders, Grade 1, patients",1 (12.5) n (%)
same,"Musculoskeletal and connective tissue disorders, Grade 1, total number of events",2
same,"Musculoskeletal and connective tissue disorders, Grade 2, patients",0 n (%)
same,"Musculoskeletal and connective tissue disorders, Grade 2, total number of events",0
same,"Musculoskeletal and connective tissue disorders, Grade 3/4, patients",0 n (%)
same,"Musculoskeletal and connective tissue disorders, Grade 3/4, total number of events",0
same,"Nausea, Grade 1, patients",1 (12.5) n (%)
same,"Nausea, Grade 1, total number of events",1
same,"Nausea, Grade 2, patients",2 (25.0) n (%)
same,"Nausea, Grade 2, total number of events",2
same,"Nausea, Grade 3/4, patients",0 n (%)
same,"Nausea, Grade 3/4, total number of events",0
same,"Neck pain, Grade 1, patients",1 (12.5) n (%)
same,"Neck pain, Grade 1, total number of events",1
same,"Neck pain, Grade 2, patients",0 n (%)
same,"Neck pain, Grade 2, total number of events",0
same,"Neck pain, Grade 3/4, patients",0 n (%)
same,"Neck pain, Grade 3/4, total number of events",0
same,"Nervous system disorders, Grade 1, patients",1 (12.5) n (%)
same,"Nervous system disorders, Grade 1, total number of events",2
same,"Nervous system disorders, Grade 2, patients",1 (12.5) n (%)
same,"Nervous system disorders, Grade 2, total number of events",1
same,"Nervous system disorders, Grade 3/4, patients",0 n (%)
same,"Nervous system disorders, Grade 3/4, total number of events",0
same,"Osteomyelitis acute, Grade 1, patients",0 n (%)
same,"Osteomyelitis acute, Grade 1, total number of events",0
same,"Osteomyelitis acute, Grade 2, patients",0 n (%)
same,"Osteomyelitis acute, Grade 2, total number of events",0
same,"Osteomyelitis acute, Grade 3/4, patients",1 (12.5) n (%)
same,"Osteomyelitis acute, Grade 3/4, total number of events",1
same,"Pain in jaw, Grade 1, patients",1 (12.5) n (%)
same,"Pain in jaw, Grade 1, total number of events",1
same,"Pain in jaw, Grade 2, patients",0 n (%)
same,"Pain in jaw, Grade 2, total number of events",0
same,"Pain in jaw, Grade 3/4, patients",0 n (%)
same,"Pain in jaw, Grade 3/4, total number of events",0
same,"Platelet count decreased, Grade 1, patients",1 (12.5) n (%)
same,"Platelet count decreased, Grade 1, total number of events",1
same,"Platelet count decreased, Grade 2, patients",0 n (%)
same,"Platelet count decreased, Grade 2, total number of events",0
same,"Platelet count decreased, Grade 3/4, patients",0 n (%)
same,"Platelet count decreased, Grade 3/4, total number of events",0
same,"Pneumonia aspiration, Grade 1, patients",0 n (%)
same,"Pneumonia aspiration, Grade 1, total number of events",0
same,"Pneumonia aspiration, Grade 2, patients",0 n (%)

# — publication PMC9732253, “Inhibition of the Phosphatidylinositol-3 Kinase Pathway Using Bimiralisib in Loss-of-Function NOTCH1-Mutant Head and Neck Cancer” (The Oncologist, 2022)
